Experimental data: BigSolDB 2.1

CC(C)CCC[C@@H](C)[C@H]1CC[C@H]2[C@@H]3CC=C4C[C@@H](O)CC[C@]4(C)[C@H]3CC[C@]12C
solubility (mole fraction)
Conditions	in MIBK	in acetic acid	in anisole	in ethyl acetate	in methanol	in n-heptane
283.2 K	0.0101	0.00053	0.0176	0.00593	0.00021	0.00198
293.2 K	0.0142	0.0012	0.0205	0.00952	0.00042	0.00372
303.2 K	0.0272	0.00143	0.024	0.0146	0.00073	0.00609
313.2 K	0.036	0.00255	0.0325	0.0209	0.00105	0.00863
323.2 K	0.0483	0.00382	0.0442	0.033	0.00127	0.0152
